Here are results for eight molecules from patent US5523403A, “Tropone-substituted phenyloxazolidinone antibacterial agents” (The Upjohn Company, priority 1995, dated 1996).

Values after ≈ are worked out from the molar mass of the structure shown.

Assay [1] relates to Streptococcus pyogenes UC ® 152. As to the kind of experiment: in vitro antibacterial activity, Minimum Inhibitory Concentration, Streptococcus pyogenes. The following applies: for MIC: Streptococcus pyogenes, UC152, read-out: Minimum Inhibitory Concentration.
Assay [2] concerns Staphylococcus aureus UC ® 9213. As to the kind of experiment: in vitro antibacterial activity, Minimum Inhibitory Concentration, Staphylococcus aureus. Conditions: for MIC: Staphylococcus aureus, UC9213, read-out: Minimum Inhibitory Concentration.

Consider `CC(=O)NCC1CN(c2ccc(-c3ccc(N4CCN(C)CC4)c(=O)cc3)cc2)C(=O)O1` (racemic) [Compound 10, (±)-N-[[3-[4-[4-(4-methyl-1-piperazinyl)-5-oxo-1,3,6-cycloheptatrien-1-yl]phenyl]-2-oxo-5-oxazolidinyl]methyl]-acetamide], for which the figures for the MIC in assay [1] and in assay [2] were 0.12 mg/L (≈ 0.275 µM) and 2 mg/L (≈ 4.58 µM), respectively.
The corresponding values for `COc1ccc(-c2ccc(N3CC(CNC(C)=O)OC3=O)cc2F)ccc1=O` (racemic) [Compound 16, (±)-N-[[3-[3-fluoro-4-(4-methoxy-5-oxo-1,3,6-cycloheptatrien-1-yl)phenyl]-2-oxo-5-oxazolidinyl]methyl]-acetamide] are 0.25 mg/L (≈ 0.647 µM) and 1 mg/L (≈ 2.59 µM).
With “(±)-N-[[3-[4-[4-(3-amino-1-yl]phenyl]-2-oxo-5-oxazolidinyl]methyl]-acetamide [Compound 23]”, the “Minimum Inhibitory Concentration” value turned out to be 0.25 µg/mL in assay [1] (in vitro, Streptococcus pyogenes UC ® 152) and 16 µg/mL in assay [2] (in vitro, Staphylococcus aureus UC ® 9213).
For `CC(=O)NCC1CN(c2ccc(-c3ccc(N4CCCC4)c(=O)cc3)cc2)C(=O)O1` (racemic) [Compound 9, (±)-N-[[3-[4-[4-(1-pyrrolidinyl)-5-oxo-1,3,6-cycloheptatrien-1-yl]]phenyl]-2-oxo-5-oxazolidinyl]methyl]-acetamide], the values for the MIC in assay [1] and in assay [2] were 1 mg/L (≈ 2.45 µM) and 4 mg/L (≈ 9.82 µM), respectively.
The corresponding values for `CC(=O)NCC1CN(c2ccc(-c3ccc(N4CCNC(C)C4)c(=O)cc3)cc2)C(=O)O1` (racemic) [Compound 17, (±)-N-[[3-[4-[4-(3-methyl-1-piperazinyl)-5-oxo-1,3,6-cycloheptatrien-1-yl]phenyl]2-oxo-5-oxazolidinyl]methyl]-acetamide] are 0.25 mg/L (≈ 0.573 µM) and 8 mg/L (≈ 18.3 µM).
Consider `CC(=O)NCC1CN(c2ccc(-c3ccc(OC(C)C)c(=O)cc3)cc2)C(=O)O1` (racemic) [Compound 24, (±)-N[[3-[4-[4-(1-methylethoxy)-5-oxo-1,3,6-cycloheptatrien-1-yl]phenyl]-2-oxo-5-oxazolidinyl]methyl]-acetamide], for which the values for the MIC in assay [1] and in assay [2] were 1 mg/L (≈ 2.52 µM) and 4 mg/L (≈ 10.1 µM), respectively.
Turning to `CC(=O)NCC1CN(c2ccc(-c3ccc(N4CCNCC4)c(=O)cc3)cc2)C(=O)O1` (racemic) [Compound 12, (±)-N-[[3-[4-[4-(1-piperazinyl)-5-oxo-1,3,6-cycloheptatrien-1-yl]phenyl]-2-oxo-5-oxazolidinyl]methyl]-acetamide], the MIC was determined as 0.25 mg/L (≈ 0.592 µM) in assay [1] and 8 mg/L (≈ 18.9 µM) in assay [2].
`C#CCNc1cccc(-c2ccc(N3CC(CNC(C)=O)OC3=O)cc2)cc1=O` (racemic) [Compound 29, (±)-N-[[3-[4-[4-(2-pyopynylamino)-3-oxo-1,4,6-cycloheptatrien-1-yl)phenyl]2-oxo-5-oxazolidinyl]methyl-acetamide]: the MIC in assay [1] worked out at 0.5 mg/L (≈ 1.28 µM); in assay [2] it was 2 mg/L (≈ 5.11 µM).
